Target: T1, human SGLT2 protein modified to have LeuGluSerArgGlyProVal added to the carboxy-terminal final residue (Homo sapiens, UniProt P31639)
T1 construct: expressed in transfected cells; host or cells: CHO-K1
T1 sequence (P31639 with tags, fused parts or gaps): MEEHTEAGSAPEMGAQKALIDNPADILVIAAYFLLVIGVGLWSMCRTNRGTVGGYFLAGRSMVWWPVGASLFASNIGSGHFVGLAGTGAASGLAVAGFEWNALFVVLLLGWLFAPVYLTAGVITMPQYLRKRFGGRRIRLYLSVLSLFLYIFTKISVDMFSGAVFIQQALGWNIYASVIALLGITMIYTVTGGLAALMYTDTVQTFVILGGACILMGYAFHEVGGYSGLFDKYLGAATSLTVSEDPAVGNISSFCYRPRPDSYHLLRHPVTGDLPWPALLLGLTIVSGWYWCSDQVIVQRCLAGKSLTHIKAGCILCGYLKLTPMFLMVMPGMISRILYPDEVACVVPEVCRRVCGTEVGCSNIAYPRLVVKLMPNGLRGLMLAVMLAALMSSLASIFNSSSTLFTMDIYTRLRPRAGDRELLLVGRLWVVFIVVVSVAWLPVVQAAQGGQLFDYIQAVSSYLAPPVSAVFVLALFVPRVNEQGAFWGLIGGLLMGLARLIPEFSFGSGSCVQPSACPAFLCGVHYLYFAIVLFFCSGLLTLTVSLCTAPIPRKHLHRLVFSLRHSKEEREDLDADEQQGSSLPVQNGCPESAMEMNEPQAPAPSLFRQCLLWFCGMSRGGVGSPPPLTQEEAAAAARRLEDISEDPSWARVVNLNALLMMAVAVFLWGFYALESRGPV
Assay: Inhibition test for sodium-dependent sugar uptake in CHO-K1 cells stably expressing human SGLT2, Method A
Format: cell-based
Conditions: uptake 37° C., 60 minutes, read-out: IC50 for hSGLT2 Method A
Procedure: (2) Creation of CHO-K1 Cells Stably Expressing Human SGLT2
Method A (described in WO2007/136116): A plasmid vector expressing human SGLT2 protein modified to have LeuGluSerArgGlyProVal added to the carboxy-terminal final residue was transfected into CHO-K1 cells using lipofectamine 2000 (Invitrogen). The cells were cultured in the presence of 500 μg/mL hygromycin B to select resistant strains, followed by screening in the system shown below using sugar uptake capacity as an indicator to obtain SGLT2-expressing cells.
(3) Inhibition Test for Sodium-Dependent Sugar Uptake in Stably Expressing Cells
The stably expressing cells prepared above were used in the following test.
Pretreatment buffer (140 mM choline chloride, 2 mM KCl, 1 mM CaCl2, 1 mM MgCl2, 10 mM HEPES/5 mM Tris, pH 7.4) was added in a volume of 200 μL to the cells stably expressing SGLT1 or 2 mL for Method A and 200 μL for Method B to the cells stably expressing SGLT2, followed by incubation for 20 minutes. The pretreatment buffer was removed and replaced by uptake buffer containing a test compound (1 mM methyl α-D-glucopyranoside (containing [^14C]methyl α-D-glucopyranoside), 140 mM NaCl, 2 mM KCl, 1 mM CaCl2, 1 mM MgCl2, 10 mM HEPES/5 mM Tris, pH 7.4) in a volume of 75 μL for SGLT1 and SGLT2 in Method B or 200 μL for SGLT2 in Method A. Uptake reaction was performed at 37° C. for 30 minutes (SGLT1) or 60 minutes (SGLT2). After the reaction, the cells were washed twice with washing buffer (10 mM methyl α-D-glucopyranoside, 140 mM choline chloride, 2 mM KCl, 1 mM CaCl2, 1 mM MgCl2, 10 mM HEPES/5 mM Tris, pH 7.4) in a volume of 200 μL for SGLT1 and SGLT2 in Method B or 2 mL for SGLT2 in Method A, and then dissolved in a 0.25 M NaOH solution (75 μL for SGLT1 and SGLT2 in Method B or 400 μL for SGLT2 in Method A). A liquid scintillator (Perkin Elmer) was added and mixed well with each sample, followed by measurement of radioactivity using a β-ray analyzer. For the control group, uptake buffer containing no test compound was prepared. Moreover, another uptake buffer containing choline chloride instead of NaCl was also prepared for basal uptake.
For determination of IC50 values, test compounds prepared at 6 appropriate concentrations were used and their concentrations required for 50% inhibition of the amount of sugar uptake (IC50 values) were calculated relative to the amount of sugar uptake in the control group (100%).

Point of comparison: Cc1cc(/C=C/C(C)(C)C(=O)NC(C)(C)C(=O)NCCN(C)C)ccc1Cc1cc([C@@H]2O[C@H](CO)[C@@H](O)[C@H](O)[C@H]2O)c(O)cc1C(C)C [Example 1-2], IC50 2690 nM. Against it:
- Cc1cc(/C=C/C(C)(C)C(=O)NC(C)(C)C(=O)N2CCC(N(C)C)CC2)ccc1Cc1cc([C@@H]2O[C@H](CO)[C@@H](O)[C@H](O)[C@H]2O)c(O)cc1C(C)C [Example 5-2] — 3.4-fold lower, 802 nM
- Cc1cc(/C=C/C(C)(C)C(=O)NC(C)(C)C(=O)NCC(C)(C)N)ccc1Cc1cc([C@@H]2O[C@H](CO)[C@@H](O)[C@H](O)[C@H]2O)c(O)cc1C(C)C [Example 6-2] — within 1.5-fold, 3110 nM
- COc1cc(C(C)C)c(Cc2ccc(/C=C/C(C)(C)C(=O)NC(C)(C)C(=O)NCC(C)(C)N)cc2C)cc1[C@@H]1O[C@H](CO)[C@@H](O)[C@H](O)[C@H]1O [Example 13-2] — 5.5-fold higher, 14800 nM
- COc1cc(C(C)C)c(Cc2ccc(/C=C/C(C)(C)C(=O)NC(C)(C)C(=O)NCCN(C)C)cc2)cc1[C@@H]1O[C@H](CO)[C@@H](O)[C@H](O)[C@H]1O [Example 15-2] — 2.1-fold lower, 1280 nM

Source: patent publication US8466113B2, “4-isopropylphenyl glucitol compounds as SGLT1 inhibitors” (Taisho Pharmaceutical Co., Ltd., priority 2009, dated 2013)
